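How tested: cells in 96-well plates exposed to compound for 48 hours at five concentrations. TGI: total growth inhibition.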
Columns and labels:
Test in all cases: growth of human tumour cells (NCI), 48 h
T-47D breast = system: T-47D breast
HL-60(TB) leukemia = system: HL-60(TB) leukemia
SN12C renal = system: SN12C renal
PC-3 prostate = system: PC-3 prostate
ACHN renal = system: ACHN renal
SK-MEL-2 melanoma = system: SK-MEL-2 melanoma
A549 NSCLC = system: A549 NSCLC
SK-OV-3 ovarian = system: SK-OV-3 ovarian
TK-10 renal = system: TK-10 renal
HOP-92 NSCLC = system: HOP-92 NSCLC
NCI-H460 lung = system: NCI-H460 lung
NCI-H522 lung = system: NCI-H522 lung
SF-539 CNS = system: SF-539 CNS
HCT-15 colon = system: HCT-15 colon
SNB-75 CNS = system: SNB-75 CNS
CCRF-CEM leukemia = system: CCRF-CEM leukemia
DU-145 prostate = system: DU-145 prostate
SR leukemia = system: SR leukemia
MALME-3M melanoma = system: MALME-3M melanoma
HOP-62 NSCLC = system: HOP-62 NSCLC
OVCAR-4 ovarian = system: OVCAR-4 ovarian
CAKI-1 renal = system: CAKI-1 renal
MOLT-4 leukemia = system: MOLT-4 leukemia
SK-MEL-5 melanoma = system: SK-MEL-5 melanoma
MCF7 breast = system: MCF7 breast
OVCAR-5 ovarian = system: OVCAR-5 ovarian
K-562 leukemia = system: K-562 leukemia
SF-268 CNS = system: SF-268 CNS
NCI-H23 lung = system: NCI-H23 lung
KM12 colon = system: KM12 colon
BT-549 breast = system: BT-549 breast
SK-MEL-28 melanoma = system: SK-MEL-28 melanoma
COLO 205 colon = system: COLO 205 colon
OVCAR-3 ovarian = system: OVCAR-3 ovarian
MDA-N = system: MDA-N
RXF 393 renal = system: RXF 393 renal
UO-31 renal = system: UO-31 renal
EKVX NSCLC = system: EKVX NSCLC
A498 renal = system: A498 renal
NCI-H226 lung = system: NCI-H226 lung
OVCAR-8 ovarian = system: OVCAR-8 ovarian
SNB-19 CNS = system: SNB-19 CNS
HS 578T breast = system: HS 578T breast
IGROV1 ovarian = system: IGROV1 ovarian
M14 melanoma = system: M14 melanoma
U251 CNS = system: U251 CNS
SF-295 CNS = system: SF-295 CNS
HCC-2998 colon = system: HCC-2998 colon
MDA-MB-435 = system: MDA-MB-435
786-0 renal = system: 786-0 renal
HT29 colon = system: HT29 colon
MDA-MB-231 breast = system: MDA-MB-231 breast
RPMI-8226 leukemia = system: RPMI-8226 leukemia
UACC-257 melanoma = system: UACC-257 melanoma
UACC-62 melanoma = system: UACC-62 melanoma
HCT-116 colon = system: HCT-116 colon
NCI/ADR-RES ovarian = system: NCI/ADR-RES ovarian
SW-620 colon = system: SW-620 colon
LOX IMVI melanoma = system: LOX IMVI melanoma

Clc1c2ncccc2cc2n[nH]nc12
TGI (T-47D breast): > 100 µM | TGI (HL-60(TB) leukemia): > 100 µM | TGI (SN12C renal): > 100 µM | TGI (PC-3 prostate): > 100 µM | TGI (ACHN renal): > 100 µM | TGI (SK-MEL-2 melanoma): > 100 µM | TGI (A549 NSCLC): > 100 µM | TGI (SK-OV-3 ovarian): > 100 µM | TGI (TK-10 renal): > 100 µM | TGI (HOP-92 NSCLC): > 100 µM | TGI (NCI-H460 lung): > 100 µM | TGI (NCI-H522 lung): > 100 µM | TGI (SF-539 CNS): > 100 µM | TGI (HCT-15 colon): > 100 µM | TGI (SNB-75 CNS): > 100 µM | TGI (CCRF-CEM leukemia): > 100 µM | TGI (DU-145 prostate): > 100 µM | TGI (SR leukemia): > 100 µM | TGI (MALME-3M melanoma): > 100 µM | TGI (HOP-62 NSCLC): > 100 µM | TGI (OVCAR-4 ovarian): > 100 µM | TGI (CAKI-1 renal): > 100 µM | TGI (MOLT-4 leukemia): 77.1 µM | TGI (SK-MEL-5 melanoma): > 100 µM | TGI (MCF7 breast): > 100 µM | TGI (OVCAR-5 ovarian): > 100 µM | TGI (K-562 leukemia): > 100 µM | TGI (SF-268 CNS): > 100 µM | TGI (NCI-H23 lung): > 100 µM | TGI (KM12 colon): > 100 µM | TGI (BT-549 breast): > 100 µM | TGI (SK-MEL-28 melanoma): > 100 µM | TGI (COLO 205 colon): > 100 µM | TGI (OVCAR-3 ovarian): > 100 µM | TGI (MDA-N): > 100 µM | TGI (RXF 393 renal): > 100 µM | TGI (UO-31 renal): > 100 µM | TGI (EKVX NSCLC): > 100 µM | TGI (A498 renal): > 100 µM | TGI (NCI-H226 lung): > 100 µM | TGI (OVCAR-8 ovarian): > 100 µM | TGI (SNB-19 CNS): > 100 µM | TGI (HS 578T breast): > 100 µM | TGI (IGROV1 ovarian): > 100 µM | TGI (M14 melanoma): > 100 µM | TGI (U251 CNS): > 100 µM | TGI (SF-295 CNS): > 100 µM | TGI (HCC-2998 colon): > 100 µM | TGI (MDA-MB-435): > 100 µM | TGI (786-0 renal): > 100 µM | TGI (HT29 colon): > 100 µM | TGI (MDA-MB-231 breast): > 100 µM | TGI (RPMI-8226 leukemia): > 100 µM | TGI (UACC-257 melanoma): > 100 µM | TGI (UACC-62 melanoma): > 100 µM | TGI (HCT-116 colon): > 100 µM | TGI (NCI/ADR-RES ovarian): > 100 µM | TGI (SW-620 colon): > 100 µM

Cc1cccc2nc3cccc(C(=O)NCCC[N+](C)(CCCNC(=O)c4cccc5nc6cccc(C)c6nc45)Cc4ccc([N+](=O)[O-])n4C)c3nc12
TGI (T-47D breast): > 100 µM | TGI (SN12C renal): > 100 µM | TGI (PC-3 prostate): > 100 µM | TGI (ACHN renal): > 100 µM | TGI (SK-MEL-2 melanoma): > 100 µM | TGI (A549 NSCLC): > 100 µM | TGI (SK-OV-3 ovarian): > 100 µM | TGI (TK-10 renal): > 100 µM | TGI (HOP-92 NSCLC): > 100 µM | TGI (NCI-H460 lung): > 100 µM | TGI (NCI-H522 lung): > 100 µM | TGI (HCT-15 colon): > 100 µM | TGI (SNB-75 CNS): > 100 µM | TGI (CCRF-CEM leukemia): > 26.9 µM | TGI (LOX IMVI melanoma): > 100 µM | TGI (DU-145 prostate): > 100 µM | TGI (SR leukemia): > 100 µM | TGI (MALME-3M melanoma): > 100 µM | TGI (HOP-62 NSCLC): > 100 µM | TGI (OVCAR-4 ovarian): > 100 µM | TGI (CAKI-1 renal): > 100 µM | TGI (MOLT-4 leukemia): 26.2 µM | TGI (SK-MEL-5 melanoma): > 100 µM | TGI (MCF7 breast): > 100 µM | TGI (OVCAR-5 ovarian): > 100 µM | TGI (K-562 leukemia): > 100 µM | TGI (SF-268 CNS): > 100 µM | TGI (NCI-H23 lung): > 100 µM | TGI (KM12 colon): > 100 µM | TGI (BT-549 breast): > 100 µM | TGI (SK-MEL-28 melanoma): > 100 µM | TGI (COLO 205 colon): > 100 µM | TGI (OVCAR-3 ovarian): > 100 µM | TGI (MDA-N): > 100 µM | TGI (RXF 393 renal): > 100 µM | TGI (UO-31 renal): > 100 µM | TGI (EKVX NSCLC): > 100 µM | TGI (A498 renal): > 100 µM | TGI (NCI-H226 lung): > 100 µM | TGI (OVCAR-8 ovarian): > 100 µM | TGI (SNB-19 CNS): > 100 µM | TGI (HS 578T breast): > 100 µM | TGI (IGROV1 ovarian): > 100 µM | TGI (M14 melanoma): > 100 µM | TGI (U251 CNS): > 100 µM | TGI (SF-295 CNS): > 100 µM | TGI (HCC-2998 colon): > 100 µM | TGI (MDA-MB-435): > 100 µM | TGI (786-0 renal): > 100 µM | TGI (HT29 colon): > 100 µM | TGI (MDA-MB-231 breast): > 100 µM | TGI (RPMI-8226 leukemia): > 100 µM | TGI (UACC-257 melanoma): > 100 µM | TGI (UACC-62 melanoma): > 100 µM | TGI (HCT-116 colon): > 100 µM | TGI (NCI/ADR-RES ovarian): > 100 µM | TGI (SW-620 colon): > 100 µM

— PubChem BioAssay (NCI)
